# Reference: publication PMC11320730, “5-Methoxy-2-aminoindane Reverses Diet-Induced Obesity and Improves Metabolic Parameters in Mice: A Potential New Class of Antiobesity Therapeutics” (ACS Pharmacology & Translational Science, 2024)
# Experiments:
# [1] = system: hepatic lipid metabolism regulators; test: Western blotting of liver proteins in DIO mice; format: in vivo; details: 40 mg/kg/day
# Procedure: (§1) Male C57BL/6 mice were used to establish DIO by feeding them a high-fat diet (HFD; 60% cal/L fat, 20% cal/L protein, and 20% cal/L carbohydrates; Research Diet, D12492) for 18 weeks. After this period, mice were treated with either vehicle (sterile water, N = 8) or MEAI (N = 11) daily for 28 days by gavage at a dose of 40 mg/kg/day. Age-matched control mice (N = 10) on a standard diet (STD; 14% kcal fat, 24% kcal protein, 62% kcal carbohydrates; NIH-31 rodent diet) received vehicle daily. The body weight of all mice was monitored daily, and total body fat and lean mass were determined by EchoMRI-100H (Echo Medical Systems LLC, Houston, Texas, USA). On day 29, at the end of the experimental period, mice were euthanized by a cervical dislocation under anesthesia. The kidneys, brain, liver, and fat pads were removed and weighed, and samples were either snap-frozen or fixed in buffered 4% formalin. Trunk blood was collected to determine the biochemical parameters.
# Liver samples were prepared in a RIPA buffer (25 mM Tris–HCl pH 7.6, 150 mM NaCl, 1% NP-40, 1% sodium deoxycholate, 0.1% SDS), and the homogenates were prepared by using the Bullet Blender and zirconium oxide beads (catalog no. ZROB10, Next Advanced, Inc., New York, USA). Protein concentrations were measured with the Pierce BCA Protein Assay Kit (catalog no. 23225, Thermo Scientific, Illinois, USA). Samples were resolved by SDS-PAGE (4–15% acrylamide, 150 V) and transferred to PVDF or nitrocellulose membranes using the Trans-Blot Turbo Transfer System (Bio-Rad, California). The membranes were then incubated for 1 h in 5% milk (in 1× M TBS-T) to block unspecific binding. The membranes were incubated overnight with cluster of differentiation 36 (CD36; Abcam, Cambridge, UK; Cat# ab252922), stearoyl-CoA desaturase 1 (SCD1; Cell Signaling Technology, Danvers, Massachusetts; Cat# 2794S), fatty acid synthase (FASN; Cell Signaling Technology, Danvers, Massachusetts, USA; Cat# 3180S), 5′-adenosine monophosphate (AMP)-activated protein kinase alpha (AMPKα; Cell Signaling Technology, Danvers, Massachusetts, USA; Cat# 2532S), phosphorylated-AMPKα (Cell Signaling Technology, Danvers, Massachusetts, USA; Cat# 2535S), acetyl-CoA carboxylase (ACC; Cell Signaling Technology, Danvers, Massachusetts, USA; Cat# 3662S), and phosphorylated ACC (Cell Signaling Technology, Danvers, Massachusetts, USA; Cat# 3661S) antibodies at 4 °C. Antirabbit/mouse horseradish peroxidase (HRP)-conjugated secondary antibodies were used for 1 h at room temperature, followed by chemiluminescence detection using Clarity Western ECL Blotting Substrate (Bio-Rad, California). Densitometry was quantified by using ImageJ software. Quantification was normalized to anti-β actin antibody (Abcam, Cambridge, UK; Cat# ab49900) or valosin-containing protein (VCP) (Abcam, Cambridge, UK; Cat# ab204290).
# DIO C57BL/6 mice [2] = test: Multiparameter metabolic assessment in DIO mice; format: in vivo
# Procedure: as §1
# The metabolic profiles and food and water intakes of the mice were assessed using the Promethion High-Definition Behavioral Phenotyping System (Sable Instruments, Inc., Las Vegas, Nevada, USA). MetaScreen software version 2.2.18.0 was used for data acquisition and instrument control. Raw data were processed using ExpeData version 1.8.4 with an analysis script detailing all aspects of the data transformation. Mice with free access to food and water, housed at temperatures of (22–23 °C), were subjected to a standard 12 h light/12 h dark cycle, which consisted of a 48 h acclimation period followed by 24 h of sampling after dosing. Respiratory gases were measured using the GA-3 gas analyzer (Sable Systems, Inc., Las Vegas, Nevada, USA) employing a pull-mode negative-pressure system. Airflow was measured and controlled by an FR-8 instrument (Sable Systems, Inc., Las Vegas, Nevada, USA) at a flow rate of 2000 mL/min. Water vapor was continuously measured, and its dilution effect on O2 and CO2 was mathematically compensated. Respiratory exchange rate (RER) was calculated as the ratio of CO2 produced (VCO2) to O2 consumed (VO2) using eq 1): [drawing 1] 1
# Total energy expenditure (TEE) was calculated using VO2 and RER, according to eq 2: [drawing 2] 2
# Fat oxidation (FO) and carbohydrate oxidation (CHO) were calculated using VO2 and VCO2 based on eqs 3 and 4, respectively: [drawing 3] 3 [drawing 4] 4
# Energy balance and energy flux were derived from eqs 5 and 6: [drawing 5] 5 [drawing 6] 6
# The thermic effect of food for each animal was calculated based on its individual food intake in a period of 24 h according to the specific percentage of carbohydrates, fats, and proteins in the consumed diet.
# The basal energy expenditure was calculated based on the mean energy expenditure (EE) during the lowest EE in a 30 min period, in kilocalories per hour (kcal/h). This calculation represented the animal’s basal metabolic rate.
# [3] = system: dopamine transporter (DAT); parameters: method as in PMID 30904940; details: cited from earlier work
# DIO C57BL/6 mice [4] = test: Glucose tolerance test (ipGTT) and insulin tolerance test (ipITT) in DIO mice; format: in vivo; details: 40 mg/kg/day
# Procedure: as §1
# On day 25 of the experiment, mice were subjected to an overnight fasting and then injected with glucose (1.5 g/kg i.p.) on the following day (day 26). Blood glucose levels were determined at 0, 15, 30, 45, 60, 90, and 120 min after injection using the Contour glucometer (Bayer, Pittsburgh, Pennsylvania, USA). The mice were then fasted for 6 h the next day (day 27) before being administered insulin (0.75 U/kg, i.p.; Actrapid vials, Novo Nordisk A/S, Bagsværd, Denmark). Blood glucose levels were determined at the same intervals as those described above. To assess insulin resistance, the homeostasis model assessment insulin resistance (HOMA-IR) was calculated as fasting serum insulin ([μU/mL] × fasting plasma glucose [mmol/L]/22.5). The relative insulin sensitivity index (ISI) was calculated as 1/(glucose × insulin) × 1000, with glucose expressed as mg/dL and insulin as mU/L.
# [5] = system: vesicular monoamine transporter (VMAT); parameters: method as in PMID 29458138; details: cited from earlier work
# [6] = DIO mice, 40 mg/kg/day, vs HFD vehicle
smiles,measurement,setting,value
"COc1ccc2c(c1)CC(N)C2.Cl (centres unmarked) [MEAI, 2,3-Dihydro-5-methoxy-1H-inden-2-amine hydrochloride]",CD36 protein levels,[1],remained unchanged
same,FASN protein levels,[1],significantly reduced
same,SCD1 protein levels,[1],significantly reduced
same,phosphorylated ACC (p-ACC) levels,[1],did not significantly affect
same,phosphorylated AMPK (p-AMPK),[1],trend toward increased
same,basal energy expenditure,"DIO C57BL/6 mice [2]; DIO mice, 40 mg/kg/day",significantly boosted
same,cumulative TEE,"DIO C57BL/6 mice [2]; DIO mice, 40 mg/kg/day",increases
same,water consumption,"DIO C57BL/6 mice [2]; DIO mice, 40 mg/kg/day",did not exert any significant influence
same,total food intake over 24 h,"DIO C57BL/6 mice [2]; DIO mice, 40 mg/kg/day, across all groups",similar
same,overall energy balance,"DIO C57BL/6 mice [2]; DIO mice, 40 mg/kg/day, across the groups",no significant changes
same,thermodynamic (thermic) effect of food,"DIO C57BL/6 mice [2]; DIO mice, 40 mg/kg/day, between groups",remained unchanged
same,RER,"DIO C57BL/6 mice [2]; DIO mice, 40 mg/kg/day, in comparison to STD vehicle group",slightly decreased
same,differences in TEE by ANCOVA using lean mass as covariant,"DIO C57BL/6 mice [2]; DIO mice, 40 mg/kg/day, p = 0.0097 vs HFD vehicle",treatment-dependent
same,average energy expenditure,"DIO C57BL/6 mice [2]; DIO mice, 40 mg/kg/day, vs HFD and STD vehicle, light and dark phases",significant increase
same,CHO levels,DIO C57BL/6 mice [2]; [6],no direct effect of the drug itself observed
same,carbon dioxide production,DIO C57BL/6 mice [2]; [6],slightly increased
same,oxygen consumption,DIO C57BL/6 mice [2]; [6],slightly increased
same,overall rate of FO,"DIO C57BL/6 mice [2]; DIO mice, 40 mg/kg/day, vs HFD- and STD-vehicle groups",increase
same,energy flux,"DIO C57BL/6 mice [2]; DIO mice, 40 mg/kg/day, vs vehicle groups",significant increase
same,meal size (food intake per meal),"DIO C57BL/6 mice [2]; HFD-fed mice regardless of MEAI treatment (40 mg/kg/day), vs STD",significant reduction
same,interaction with transporter,[3],interacts
same,HOMA-IR score,DIO C57BL/6 mice [4],improved
same,ISI score,DIO C57BL/6 mice [4],improved
same,fasting blood glucose levels,DIO C57BL/6 mice [4],reduced
same,glucose metabolism (glucose and insulin tolerance tests),DIO C57BL/6 mice [4]; days 26-27,significant improvement
same,binding inhibition,[5],unaffected
